This is an account of results in patent US20260216110A1, “COMPOUND USEFUL AS THYROID HORMONE RECEPTOR ß-SELECTIVE THYROID HORMONE ANALOG” (NATIONAL UNIVERSITY CORPORATION TOKAI NATIONAL HIGHER …, priority 2022, published 2026).

Series [1] can be described thus: Heart weight (cardiac hypertrophy). It counts as in vivo, C57BL/6J mice. Here is the method: (§1) Male 7-week-old C57BL/6J mice were individually housed in cages (Innocages, ORIENTAL GIKEN) and kept warm at 23° C. with a 12-hour light-dark cycle starting at 8:00 AM. After 1 week of acclimation, the animals were given either a normal diet (ND; 10 kcal % fat, D12450B, Research Diets) or a high-fat diet (HFD; 60 kcal % fat, D12492, Research Diets). […] The injection was given 6 hours after lights on. Food consumption and body weight were measured weekly. Food and water were provided to the animals ad libitum. After 3 weeks of daily injections, whole blood was collected under isoflurane anesthesia, and the heart and liver were harvested. The liver was frozen and stored at −80° C.
Left ventricular hypertrophy is often associated with hyperthyroidism caused by increased heart rate mediated by hTHRα. Therefore, hTHRβ-selective analogs are expected to avoid this adverse effect on the heart. To examine whether cardiac hypertrophy was induced, the weight of the heart collected in Test Example 4 was measured.

Series [2] has as its system lipid droplets in hepatocytes. Kind of series: Oil Red O staining of liver sections, high-fat diet mice. The note with it: HFD mice, 1 μmol/kg-day i.p. for 3 weeks, compared to the vehicle. It counts as in vivo, C57BL/6J mice. Here is the method:
Lipid droplets are organelles for storing neutral lipids, such as triglycerides and cholesterol esters. Excessive accumulation of lipid droplets in hepatocytes is characteristic of non-alcoholic fatty liver disease (NAFLD). […] Specifically, the procedure performed is described below.
as §1
20 μm sections were prepared from the frozen liver tissues using a cryostat (CM3050 S, Leica). The sections were mounted on silane-coated glass slides, dried at room temperature, and stored at −80° C. until use. Before staining, the sections were fixed with 1% PFA/1×PBS, pH of 7.4 (Gibco), for 5 minutes, then immersed in 1×PBS for 5 minutes, distilled water for 5 minutes, and a 60% 2-propanol solution for 1 minute. The Oil Red O staining solution was prepared by mixing 0.36 g of Oil Red O (Sigma) with 120 mL of 2-propanol and 80 mL of distilled water, letting it stand at room temperature for 1 hour, filtering the solution, and then leaving it overnight at 37° C. The sections were immersed in the Oil Red O staining solution at 37° C. for 15 minutes, and then rinsed in 60% 2-propanol for 1 minute and in distilled water for 1 minute. Thereafter, the sections were counterstained with Meyer's hematoxylin. […] The area of red-stained lipid droplets was quantified using Image J (NIH), and the percentage of the stained area in the total image area was calculated. Three sections per mouse were analyzed.

For series [3], the system named is left ventricular cardiomyocytes. Put plainly: Transnuclear width of left ventricular cardiomyocytes. In kind it is in vivo, C57BL/6J mice. The note with it: T3; GC-1 high dose 1 μmol/kg BW/day; ZTA-261 dose not specified. Here is the method: (§2) Specifically, the procedure performed is described below.
The cardiac tissues collected in Test Example 4 were fixed, dehydrated, and paraffin-infiltrated using an automatic fixation and encapsulation device (Sakura Finetek Japan). Paraffin blocks were prepared using a Tissue Tech TEC 6 (Sakura Finetek Japan), and 5 μm thick transverse sections were prepared using a microtome (Leica). The sections were deparaffinized, rehydrated, and then immersed in a Meyer's hematoxylin solution (FUJIFILM Wako Pure Chemical Industries, Ltd.) and in an eosin solution. Thereafter, the sections were dehydrated and mounted using Entellan new (Merck). The sections were observed under a microscope (BX43; Olympus) at 400× magnification, and digital images were captured using cellSens (Olympus). One hundred cells were randomly selected from the left ventricle of each mouse, and their transnuclear width was measured using Image J (NIH) according to a previously reported method.

Another series concerns Ldlr, Srebp1c. Kind of series: Further testing: LDL uptake, Ldlr and Srebp1c expression. It counts as in vivo.
Series [4] is described as follows: Bone structure parameters (bone metabolism). In kind it is in vivo. The following applies: mice of Test Example 4. Here is the method:
The effect of the test compounds on bone metabolism was investigated. Specifically, bone structure parameters (bone volume: BV/TV, trabecular number: Tb.N, trabecular separation: Tb.Sp, trabecular thickness: Tb.Th, connectivity density: Conn.D) were measured using thin sections prepared from the bones of mice in Test Example 4.

Series [5] deals with ligand-binding domain of THRα or THRβ. Kind of series: Luciferase reporter assay for THRβ selectivity in GloResponse 9XGAL4UAS-luc2P HEK293 cells. The note with it: EC50-based, THRα vs THRβ. In kind it is cell-based. Here is the method: as §2
The cells used and cell culture were as follows. GloResponse 9XGAL4UAS-luc2P HEK293 cells (Promega) were stably transfected with pFN26A (BIND) (Promega) containing the coding region of the ligand-binding domain of THRα or THRβ. The cells were cultured in DMEM supplemented with 10% FBS, 200 μg/mL Hygromycin, and 750 μg/mL G418 in 90 mm cell culture dishes at 37° C. with 5% CO2. The cells were subcultured every 3 days and used in a luciferase reporter assay.
The cells were suspended in an assay medium (DMEM supplemented with 5% charcoal/dextran-treated FBS, 25 mM HEPES, and a 4 mM L-Alanyl-L-glutamine solution) and seeded at 2×10^4 cells/well in 96-well plates coated with poly-L-lysine. After incubation at 37° C. with 5% CO2 for 24 hours, each test compound was added at various concentrations. The following day, firefly luciferase luminescence was measured using a Dual-Glo Luciferase Assay System (Promega) with a microplate reader (SpectraMax i3, Molecular Devices). The luminescence of Renilla luciferase was used as an internal standard.

Series [6] can be described thus: Serum ALT level (hepatotoxicity). In kind it is in vivo, C57BL/6J mice. The following applies: compared to the vehicle. The procedure:
as §2
The blood samples collected in Test Example 4 were left to stand at room temperature for 1 hour, and then centrifuged at 4° C., 800×g, for 15 minutes, followed by collecting the supernatant. The serum ALT levels were measured using an Alanine Aminotransferase (ALT or SGPT) Activity Colorimetric/Fluorometric Assay Kit (BioVision) according to the manufacturer's protocol.

The target in another series is T1, THRα (Homo sapiens, UniProt P10827).
T1 sequence (P10827 1-410 isoform P10827-2): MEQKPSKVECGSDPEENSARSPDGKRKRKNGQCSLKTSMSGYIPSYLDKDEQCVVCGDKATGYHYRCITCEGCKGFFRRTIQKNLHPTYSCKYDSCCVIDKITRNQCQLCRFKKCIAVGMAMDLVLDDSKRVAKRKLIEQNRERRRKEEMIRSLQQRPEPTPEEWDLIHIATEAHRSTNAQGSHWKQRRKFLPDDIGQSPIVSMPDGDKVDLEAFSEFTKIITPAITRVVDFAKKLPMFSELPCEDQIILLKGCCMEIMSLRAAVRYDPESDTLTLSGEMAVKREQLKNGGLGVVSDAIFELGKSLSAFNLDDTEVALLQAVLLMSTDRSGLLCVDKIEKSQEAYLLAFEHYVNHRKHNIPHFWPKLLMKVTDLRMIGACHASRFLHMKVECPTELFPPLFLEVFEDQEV
The note with it: relative to T3; cited from earlier work.

The next series has as its target T2, full-length human THRα (Homo sapiens, UniProt P10827).
T2 sequence (P10827 1-410 isoform P10827-2): T1 sequence (P10827 1-410 isoform P10827-2)
Put plainly: Radioligand-displacement assay ([125I]-T3), THRα. The note with it: ratio of the IC50 values THRα/THRβ.

Entries after “also recorded” stand apart in the source; their conditions may differ.

Procedure for full-length human THRα: Specifically, the assessment was performed as described below by using full-length human THRα and THRβ synthesized by in vitro transcription-translation.
The reaction mixture was incubated overnight at 4° C. A nitrocellulose membrane (Optitran, 0.45 μm in pore size, Whatman) pre-blocked with E-400 buffer was placed in a dot-blot apparatus (Minifold I, GE Healthcare), and the reaction mixture was filtered through the membrane, followed by washing three times with 200 μL of E-400 buffer. […] Radioactive signals were scanned using a Typhoon FLA9000 (GE Healthcare) and quantified by using Image Quant TL software (GE Healthcare). The IC50 value of each competitor drug was calculated by fitting the dose response data to a one-site competition model using GraphPad Prism version 7.0 (GraphPad Software).

Consider `N[C@@H](Cc1cc(I)c(Oc2ccc(O)c(I)c2)c(I)c1)C(=O)O` [T3, triiodothyronine], for which the heart weight result in series [1] (high dose 1 μmol/kg BW/day) is “significantly increased”. Also, the “Oil Red O-positive area” value in [2] is “significantly reduced”. Further, the “width of cardiomyocytes (transnuclear width, left ventricle)” value (shortened to “width of cardiomyocytes”) in series [3] was “increased”. Also, in the series with Ldlr, Srebp1c, the “cellular uptake of LDL” value is “promoted”, the “expression of Ldlr” value is “increased” and the “expression of Srebp1c” value is “decreased”. For the same compound, in series [4], the “bone structure parameters (BV/TV, Tb.N, Tb.Sp, Tb.Th, Conn.D)” value (shortened to “bone structure parameters”) was “significantly worsened”.
On to `Cc1cc(OCC(=O)O)cc(C)c1Cc1ccc(O)c2ccccc12` [MY-53], for which the THRβ selectivity result in series [5] is “found to show THRβ selectivity”.
For `Cc1cc(OCC(=O)O)cc(C)c1Cc1ccc(O)c(C(C)C)c1` [GC-1], the heart weight result in series [1] (high dose 1 μmol/kg BW/day) is “significantly increased”. Moreover, the “serum ALT levels” value in [6] (high dose 1 μmol/kg BW/day) is listed as “significant increase”. Moreover, the “Oil Red O-positive area” value in [2] is given as “significantly reduced”. For the same compound, in series [3], the “width of cardiomyocytes” value is reported as “increased”. Also, on THRα, the “affinity for THRα lower than T3” value was 10 fold. Besides, in the series on Ldlr, Srebp1c, the “cellular uptake of LDL” value is given as “promoted”, the “expression of Ldlr” value is “increased” and the “expression of Srebp1c” value was “decreased”. Besides, in series [4], the “bone structure parameters” value is given as “significantly worsened”. Further, at full-length human THRα, the “affinity for THRα lower than affinity for THRβ” value is listed as “about 30 times”.
Regarding `O=C(O)COc1cc(C(F)(F)F)c(Cc2ccc(O)c3ccccc23)c(C(F)(F)F)c1` [ZTA-245], the THRβ selectivity result in series [5] was “found to show THRβ selectivity”.
As for `O=C(O)Cc1cc(C(F)(F)F)c(Cc2ccc(O)c3ccccc23)c(C(F)(F)F)c1` [ZTA-261], the heart weight entry in [1] (high dose 1 μmol/kg BW/day) is “No such effect was observed”. Besides, the heart weight entry in series [1] (low dose 0.1 μmol/kg BW/day) is listed as “No such effect was observed”. Besides, the “serum ALT levels” value in series [6] (high dose 1 μmol/kg BW/day) was “did not show a significant increase”. In addition, the “serum ALT levels” value in series [6] (low dose 0.1 μmol/kg BW/day) is given as “did not show a significant increase”. For the same compound, in series [2], the “Oil Red O-positive area” value is recorded as “significantly reduced; also recorded: the most effective, reducing the Oil Red O-positive area to a level comparable to the ND-administered group”. Further, the “width of cardiomyocytes” value in [3] is on record as “no significant increase”. In the series on Ldlr, Srebp1c, the “cellular uptake of LDL” value is listed as “promoted”, the “expression of Ldlr” value is reported as “increased” and the “expression of Srebp1c” value was “decreased”. Further, in [4], the “bone structure parameters” value is listed as “no significant changes”.
